# Assay results reported in patent US20220153746A1, “NITROGEN OXIDE-DONATING PDE-5 AND/OR PDE-6 INHIBITOR COMPOUNDS, AND USES THEREOF” (ILDONG PHARMACEUTICAL CO., LTD., priority 2020, published 2022).
# Where two headings read alike, the source gives them in different places.
# Assay: PK Phase (Group 2): plasma concentrations and pharmacokinetics of Compound 18 and its metabolite Compound 4 after once daily ocular instillation of Compound 18 nanosuspension for 7 days
# Type: in vivo, New Zealand white rabbits
# Text: This example illustrates the procedures and results for the levels of Compound 18 and its metabolite Compound 4 in plasma and ocular tissues of normotensive rabbits following ocular instillation of Compound 18 once daily for 7 consecutive days.
# Twenty five (25) male New Zealand white rabbits were divided into 5 groups of varying amounts of animals per group.
# The Test article, Compound 18 was formulated as a 2% nanosuspension in DI water containing 0.2% PS80 (polyoxyethylenesorbitan, monooleate (Tween 80)) and 0.4% HPMC (hydroxypropylmethylcellulose) at pH 6.77. Referred to herein as “Compound 18 nanosuspension.”
# The study consisted of three groups (Groups 1-3) of 19 male rabbits (NZW) that underwent once daily morning ocular installation (1 eyedrop) for 7 consecutive days (Day 0-6). Groups 4-5 each consisted of 3 male rabbits (NZW) that were not dosed.
# Blood samples (1 mL) were collected from the jugular vein at the intervals set out below for each group. The samples were then inverted several times following collection and held on wet ice until centrifuged. Samples were centrifuged within 60 minutes of collection under refrigeration (set at 5° C. for 10 minutes at 2000 g. […]
# Plasma and tissue samples from treated animals (Groups 1-3) were analyzed for Compound 18 and its metabolite Compound 4 concentrations by LC-MS/MS.
# Pharmacokinetic analysis was conducted using WinNonlin Version 6.2.1 (Pharsight, Mountain View, Calif.), operating as a validated software system. Noncompartmental analysis was conducted using the extravascular administration model for ocular instillation dosing.
# The peak plasma concentration, time to achieve peak plasma concentration, half-life, and area under the plasma concentration-time curve (Cmax, Tmax, T1/2, and AUC) were calculated from the PK phase individual animal plasma concentrations for each sampling time/dose group for Compound 18 and its metabolite Compound 4.
# BA Assay: Quantitation Range 0.05 to 100 ng/mL for Compound 18, 0.15 to 100 ng/mL for Compound 4.
# Plasma calibration standards (PLSTD-A) with Compound 18 concentrations ranging from 0.0500 to 100 ng/mL were prepared by spiking control rabbit plasma with appropriate calibration curve spiking solutions (SS-A). PLQC-A samples with concentrations of 0.150, 5.00, 50.0, and 80.0 ng/mL were prepared by spiking control rabbit plasma with appropriate SS-A-QC spiking solutions.
# Plasma calibration standards (PLSTD-B) with Compound 4 concentrations ranging from 0.150 to 100 ng/mL were prepared by spiking control rabbit plasma with appropriate calibration curve spiking solutions (SS-B). PLQC-B samples with concentrations of 0.450, 5.00, 50.0, and 80.0 ng/mL were prepared by spiking control rabbit plasma with appropriate SS-B-QC spiking solutions. PLQC-B-Dil samples at 800 ng/mL were prepared by spiking control rabbit plasma with the SS-B-QC-Dil spiking solution at 16,000 ng/mL, and then diluted 20× with control rabbit plasma prior to extraction.
# 1. Thaw plasma standards, plasma QC samples, ocular tissue QC samples, incurred plasma samples and ocular tissue samples (AH/VH) (if applicable) on wet ice. Control plasma can be thawed in tepid water. Vortex before taking aliquots.
# 2. Pipet 50 μL of water for Reagent Blank, 50 μL of control plasma for Double Blank and Blank, 50 μL of pre-spiked plasma for Standards and QC samples, 50 μL of incurred plasma samples (if applicable) into a 96 well plate.
# 5. Add 200 μL of working internal standard (WIS) solution to all remaining samples.
# 6. Seal the plate and vortex for approximately 5 minutes. Centrifuge the plate at 3500 rpm for 10 minutes at ˜4° C.
# 7. Transfer ˜200 μL of each sample supernatant into the appropriate wells of a 96 well plate. Submit for LC MS/MS analysis.
# A total of 25 rabbits were used for this study, including 19 treated rabbits and 6 control rabbits. […]
compound,measurement,setting,value
"CCCc1nn(C)c2c(=O)[nH]c(-c3cc(S(=O)(=O)N4CC(CCCO[N+](=O)[O-])C4)ccc3OCC)nc12 [Compound 18, 3-(1-((4-ethoxy-3-(1-methyl-7-oxo-3-propyl-6,7-dihydro-1H-pyrazolo[4,3-d]pyrimidin-5-yl)phenyl)sulfonyl)azetidin-3-yl)propyl nitrate]",Day 7 Compound 18 Plasma Concentration,"0.5 h, animal 207665",BQL (BQL = Below lower limit of quantitation (0.0500 ng/mL for Compound 18)
same,Day 1 Compound 18 Plasma Concentration,"1 h, animal 207664",BQL^a (BQL = Below lower limit of quantitation (0.0500 ng/mL for Compound 18)
same,Day 1 Compound 18 Plasma Concentration,"1 h, animal 207665",BQL (BQL = Below lower limit of quantitation (0.0500 ng/mL for Compound 18)
same,Day 7 Compound 18 Plasma Concentration,"1 h, animal 207665",BQL (BQL = Below lower limit of quantitation (0.0500 ng/mL for Compound 18)
same,Day 1 Compound 18 Plasma Concentration,"2 h, animal 207664",BQL (BQL = Below lower limit of quantitation (0.0500 ng/mL for Compound 18)
same,Day 1 Compound 18 Plasma Concentration,"2 h, animal 207665",BQL (BQL = Below lower limit of quantitation (0.0500 ng/mL for Compound 18)
same,Day 7 Compound 18 Plasma Concentration,"2 h, animal 207665",BQL (BQL = Below lower limit of quantitation (0.0500 ng/mL for Compound 18)
same,Day 1 Compound 18 Plasma Concentration,"2 h, animal 207666",BQL (BQL = Below lower limit of quantitation (0.0500 ng/mL for Compound 18)
same,Day 7 Compound 18 Plasma Concentration,"2 h, animal 207667",BQL (BQL = Below lower limit of quantitation (0.0500 ng/mL for Compound 18)
same,Day 1 Compound 18 Plasma Concentration,"4 h, animal 207664",BQL (BQL = Below lower limit of quantitation (0.0500 ng/mL for Compound 18)
same,Day 7 Compound 18 Plasma Concentration,"4 h, animal 207664",BQL (BQL = Below lower limit of quantitation (0.0500 ng/mL for Compound 18)
same,Day 1 Compound 18 Plasma Concentration,"4 h, animal 207665",BQL (BQL = Below lower limit of quantitation (0.0500 ng/mL for Compound 18)
same,Day 7 Compound 18 Plasma Concentration,"4 h, animal 207665",BQL (BQL = Below lower limit of quantitation (0.0500 ng/mL for Compound 18)
same,Day 1 Compound 18 Plasma Concentration,"4 h, animal 207667",BQL (BQL = Below lower limit of quantitation (0.0500 ng/mL for Compound 18)
same,Day 7 Compound 18 Plasma Concentration,"4 h, animal 207667",BQL (BQL = Below lower limit of quantitation (0.0500 ng/mL for Compound 18)
same,Day 1 Compound 18 Plasma Concentration,"8 h, animal 207664",BQL (BQL = Below lower limit of quantitation (0.0500 ng/mL for Compound 18)
same,Day 7 Compound 18 Plasma Concentration,"8 h, animal 207664",BQL (BQL = Below lower limit of quantitation (0.0500 ng/mL for Compound 18)
same,Day 1 Compound 18 Plasma Concentration,"8 h, animal 207665",BQL (BQL = Below lower limit of quantitation (0.0500 ng/mL for Compound 18)
same,Day 1 Compound 18 Plasma Concentration,"8 h, animal 207666",BQL (BQL = Below lower limit of quantitation (0.0500 ng/mL for Compound 18)
same,Day 1 Compound 18 Plasma Concentration,"8 h, animal 207667",BQL (BQL = Below lower limit of quantitation (0.0500 ng/mL for Compound 18)
same,Day 7 Compound 18 Plasma Concentration,"8 h, animal 207667",BQL (BQL = Below lower limit of quantitation (0.0500 ng/mL for Compound 18)
same,Day 1 Compound 18 Plasma Concentration,"24 h, animal 207664",BQL (BQL = Below lower limit of quantitation (0.0500 ng/mL for Compound 18)
same,Day 7 Compound 18 Plasma Concentration,"24 h, animal 207664",BQL (BQL = Below lower limit of quantitation (0.0500 ng/mL for Compound 18)
same,Day 1 Compound 18 Plasma Concentration,"24 h, animal 207665",BQL (BQL = Below lower limit of quantitation (0.0500 ng/mL for Compound 18)
same,Day 7 Compound 18 Plasma Concentration,"24 h, animal 207665",BQL (BQL = Below lower limit of quantitation (0.0500 ng/mL for Compound 18)
same,Day 1 Compound 18 Plasma Concentration,"24 h, animal 207667",BQL (BQL = Below lower limit of quantitation (0.0500 ng/mL for Compound 18)
same,In-life observations,"Groups 1-3, Compound 18 nanosuspension 1 drop/eye/day for 7 days, except animal #207664 discolored skin and rapid respiratory rate on Day 7",normal following dosing
same,concentration at 0.5 h,"male, New Zealand white, rabbit, plasma, other: ocular instillation (eye drop), 0.821 mg/kg/day, 0.5 h, Mean of 4 animals, BQL set to 0, read-out: Day 7 Compound 18 Plasma Concentration",0.0811 ng/mL
same,concentration at 0.5 h,"male, New Zealand white, rabbit, plasma, other: ocular instillation (eye drop), 0.821 mg/kg/day, 0.5 h, animal 207664, read-out: Day 7 Compound 18 Plasma Concentration",0.0978 ng/mL
same,concentration at 0.5 h,"male, New Zealand white, rabbit, plasma, other: ocular instillation (eye drop), 0.821 mg/kg/day, 0.5 h, animal 207666, read-out: Day 7 Compound 18 Plasma Concentration",0.163 ng/mL
same,concentration at 0.5 h,"male, New Zealand white, rabbit, plasma, other: ocular instillation (eye drop), 0.821 mg/kg/day, 0.5 h, animal 207667, read-out: Day 7 Compound 18 Plasma Concentration",0.0634 ng/mL
same,concentration at 1 h,"male, New Zealand white, rabbit, plasma, other: ocular instillation (eye drop), 0.821 mg/kg/day, 1 h, Mean of 4 animals, BQL set to 0, read-out: Day 7 Compound 18 Plasma Concentration",0.15 ng/mL
same,concentration at 1 h,"male, New Zealand white, rabbit, plasma, other: ocular instillation (eye drop), 0.821 mg/kg/day, 1 h, animal 207664, read-out: Day 7 Compound 18 Plasma Concentration",0.306 ng/mL
same,concentration at 1 h,"male, New Zealand white, rabbit, plasma, other: ocular instillation (eye drop), 0.821 mg/kg/day, 1 h, animal 207666, read-out: Day 7 Compound 18 Plasma Concentration",0.131 ng/mL
same,concentration at 1 h,"male, New Zealand white, rabbit, plasma, other: ocular instillation (eye drop), 0.821 mg/kg/day, 1 h, animal 207667, read-out: Day 7 Compound 18 Plasma Concentration",0.161 ng/mL
same,concentration at 2 h,"male, New Zealand white, rabbit, plasma, other: ocular instillation (eye drop), 0.821 mg/kg/day, 2 h, Mean of 4 animals, BQL set to 0, read-out: Day 1 Compound 18 Plasma Concentration",0.0208 ng/mL
same,concentration at 2 h,"male, New Zealand white, rabbit, plasma, other: ocular instillation (eye drop), 0.821 mg/kg/day, 2 h, Mean of 4 animals, BQL set to 0, read-out: Day 7 Compound 18 Plasma Concentration",0.0657 ng/mL
same,concentration at 2 h,"male, New Zealand white, rabbit, plasma, other: ocular instillation (eye drop), 0.821 mg/kg/day, 2 h, animal 207664, read-out: Day 7 Compound 18 Plasma Concentration",0.188 ng/mL
same,concentration at 2 h,"male, New Zealand white, rabbit, plasma, other: ocular instillation (eye drop), 0.821 mg/kg/day, 2 h, animal 207666, read-out: Day 7 Compound 18 Plasma Concentration",0.0747 ng/mL
same,concentration at 2 h,"male, New Zealand white, rabbit, plasma, other: ocular instillation (eye drop), 0.821 mg/kg/day, 2 h, animal 207667, read-out: Day 1 Compound 18 Plasma Concentration",0.083 ng/mL
same,concentration at 4 h,"male, New Zealand white, rabbit, plasma, other: ocular instillation (eye drop), 0.821 mg/kg/day, 4 h, Mean of 4 animals, BQL set to 0, read-out: Day 1 Compound 18 Plasma Concentration",0.0164 ng/mL
same,concentration at 4 h,"male, New Zealand white, rabbit, plasma, other: ocular instillation (eye drop), 0.821 mg/kg/day, 4 h, Mean of 4 animals, BQL set to 0, read-out: Day 7 Compound 18 Plasma Concentration",0.017 ng/mL
same,concentration at 4 h,"male, New Zealand white, rabbit, plasma, other: ocular instillation (eye drop), 0.821 mg/kg/day, 4 h, animal 207666, read-out: Day 1 Compound 18 Plasma Concentration",0.0655 ng/mL
same,concentration at 4 h,"male, New Zealand white, rabbit, plasma, other: ocular instillation (eye drop), 0.821 mg/kg/day, 4 h, animal 207666, read-out: Day 7 Compound 18 Plasma Concentration",0.0678 ng/mL
same,concentration at 8 h,"male, New Zealand white, rabbit, plasma, other: ocular instillation (eye drop), 0.821 mg/kg/day, 8 h, Mean of 4 animals, BQL set to 0, read-out: Day 1 Compound 18 Plasma Concentration",0 ng/mL
